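Cells were grown in 96-well plates and exposed to each compound for 48 hours at five concentrations; endpoints were interpolated linearly between bracketing concentrations, or set to the highest concentration if not reached. Abbreviation: GI50, concentration required for 50% inhibition of growth.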 Active and inactive are the calls of the source. Rule as the data show it: active = GI50 up to about 1.1 µM and inactive = higher.
Assays:
Assay in all cases: inhibition of tumour cell growth, NCI panel, 48 h
BT-549 = system: BT-549
MDA-MB-231 = system: MDA-MB-231
DMS-273 = system: DMS-273
LXFL 529 = system: LXFL 529
DLD-1 = system: DLD-1
HOP-18 = system: HOP-18
M19-MEL = system: M19-MEL

SMILES | GI50 (BT-549) | GI50 (MDA-MB-231) | also measured
COc1ccc(C)cc1N1C(=O)C2ON(Cc3ccc(CC(N)=O)cc3)C(c3c4ccccc4c(Cl)c4ccccc34)C2C1=O (stereo not drawn) | 24.1 µM (inactive) | 19.9 µM (inactive) | 
C/C=C/[C@H]1O[C@@](OC)([C@@H](C)[C@H](O)[C@H](C)[C@H]2OC(=O)/C(OC)=C/C(C)=C/[C@@H](C)[C@@H](O)[C@@H](C)[C@@H](O)[C@H](C)C/C(C)=C/C=C/[C@@H]2OC)CC(OC2CC(O)C(OC(N)=O)C(C)O2)[C@@H]1C (stereo partly drawn) | < 0.01 µM (active) | < 0.01 µM (active) | 
COc1ccc(C#CCC(OC2OC(CO)C(O)C(O)C2O)C(O)c2ccc(OC)c(OC)c2)cc1OC (stereo not drawn) |  |  | GI50 (DMS-273): > 100 µM (inactive); GI50 (LXFL 529): > 100 µM (inactive); GI50 (DLD-1): > 100 µM (inactive); GI50 (HOP-18): > 100 µM (inactive)
COc1ccc(-n2nnc(C(N)=O)c2O)cc1 | > 100 µM (inactive) | > 100 µM (inactive) | 
O=[N+]([O-])c1ccc(/N=N/N2CCCC2)cc1 | > 100 µM (inactive) | > 100 µM (inactive) | 
Cc1nc2c(O)nc3ccccc3c2o1 | > 100 µM (inactive) | > 100 µM (inactive) | 
N#CC1CCCC2SC(F)(F)C(F)(F)C12 (stereo not drawn) | > 100 µM (inactive) | > 100 µM (inactive) | 
Cc1ccc(S(=O)(=O)CC2CCCn3c2c(C#N)c2ccccc23)cc1 (stereo not drawn) | > 100 µM (inactive) | > 100 µM (inactive) | 
COC(=O)C1=C(C(=O)OC)C2(/N=C(\Nc3ccccc3)c3ccccc3)N(c3ccc(OC)cc3)CC(c3ccccc3)N2O1 (stereo not drawn) | > 100 µM (inactive) | > 100 µM (inactive) | 
Cc1ccc(-c2nc(N/N=C/c3ccc(O)cc3)c3ccccc3n2)cc1 | 28 µM (inactive) | 19.4 µM (inactive) | 
O=S(=O)(O)c1ccc2c(/N=N/c3ccccc3Cl)c(O)ccc2c1 | > 100 µM (inactive) | > 100 µM (inactive) | 
CCOC(=O)/C1=C(\C)N(c2ccc(C)cc2)C(=O)c2ccccc2C(=O)c2c(O)ccc(O)c21 | 27.7 µM (inactive) | 14.1 µM (inactive) | 
Cc1cccc(/C=N/NC(=S)NC2CCCCC2)n1 | 31 µM (inactive) | 35.1 µM (inactive) | 
C/C(=N\n1c(Cc2ccccc2)n[nH]c1=O)c1ccc([N+](=O)[O-])cc1 | > 100 µM (inactive) | > 100 µM (inactive) | 
COc1c(Br)cc2ccccc2c1-c1c(OC)c(Br)cc2ccccc12 |  | > 100 µM (inactive) | 
CC(=O)Oc1c2oc3cc(O)c(O)cc3c2c(OC(C)=O)c2oc3cc(O)c(O)cc3c12 [POLYOZELLIN] | 17.1 µM (inactive) |  | 
COC(=O)C1CCC(=O)N1C(c1ccc(OC)cc1)c1ccc2c(c1)OCO2 (stereo not drawn) | 89.7 µM (inactive) | > 100 µM (inactive) | 
CC(=O)OC(C)(C)[C@H]1O[C@]23O[C@]1(C)C[C@@H](C)[C@@H]2[C@@]1(C)CC[C@@]24C[C@@]25CC[C@H](O[C@@H]2OC[C@@H](O)[C@H](O)[C@H]2O)C(C)(C)[C@@H]5CC[C@H]4[C@]1(C)[C@H]3O | 16.3 µM (inactive) | 4.61 µM (inactive) | 
O=C(Nc1ccccc1)c1cc(S(=O)(=O)NC2=Nc3ccc(Cl)cc3C(c3ccccc3)N2)c(SSc2cc(Cl)c(C(=O)Nc3ccccc3)cc2S(=O)(=O)NC2=Nc3ccc(Cl)cc3C(c3ccccc3)N2)cc1Cl (stereo not drawn) | > 100 µM (inactive) | > 45.3 µM (inactive) | 
CN1C=C(C(N)=O)Cc2ccsc21 |  |  | GI50 (DMS-273): > 100 µM (inactive); GI50 (LXFL 529): > 100 µM (inactive); GI50 (DLD-1): > 100 µM (inactive); GI50 (M19-MEL): > 100 µM (inactive); GI50 (HOP-18): > 100 µM (inactive)
C/C(=C/CC[C@](C)(OC1OC(CO)C(O)C(O)C1O)[C@H]1CC[C@]2(C)[C@@H]1CC[C@@H]1[C@@]3(C)CC[C@H](O)C(C)(C)[C@@H]3C[C@H](O)[C@]12C)CO (stereo partly drawn) | 12.5 µM (inactive) | 31.3 µM (inactive) | 
C=C(CBr)CCCOCc1ccccc1 | 15 µM (inactive) | > 10 µM (inactive) | 
CC(=O)OCCn1cnc2c(NCC=C(C)C)ncnc21 |  | > 100 µM (inactive) | 

Source: ChEMBL document CHEMBL1201862, “PubChem BioAssay data set” (2004)
